# Measurements as given in US9701670B2, “Pyrazolyl-ureas as kinase inhibitors” (RESPIVERT LIMITED, priority 2013, dated 2017).
# Experiments:
# [1] = biological target: p38 MAPKα isoform (MAPK14) (Homo sapiens (Human), UniProt Q16539); test: p38 MAPKα enzyme inhibition (FRET, Z-LYTE), Method 1; assay type: biochemical; details: Method 1 (Table 4a1)
# [2] = test system: Differentiated U937 cells; test: (l) Cell viability: MTT assay; assay type: cell-based, human; details: 1 μg/mL
# Procedure, shortened: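 MTT read-out (1 h, absorbance 550 nm) on d-U937 cells after pre-incubation with 1 or 10 μg/mL compound under two regimes: 4 h, 5% FCS, or 24 h, 10% FCS RPMI1640. Values are percent loss of viability relative to vehicle (0.5% DMSO), so increases are reported as negative.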
# Chain of p38 MAPKα isoform (MAPK14) (Q16539 whole entry, canonical isoform): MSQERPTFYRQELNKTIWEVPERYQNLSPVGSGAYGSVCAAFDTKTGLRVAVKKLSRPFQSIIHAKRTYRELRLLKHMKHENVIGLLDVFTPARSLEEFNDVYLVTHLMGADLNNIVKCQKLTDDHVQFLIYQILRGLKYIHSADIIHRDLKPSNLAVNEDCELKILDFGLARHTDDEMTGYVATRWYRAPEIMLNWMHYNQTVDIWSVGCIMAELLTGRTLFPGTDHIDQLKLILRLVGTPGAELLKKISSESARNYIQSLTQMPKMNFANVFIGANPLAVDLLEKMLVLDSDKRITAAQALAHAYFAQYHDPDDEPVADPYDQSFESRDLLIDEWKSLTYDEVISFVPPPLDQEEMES
IC50 [1] [nM],Compound,Cell viability at time point in d-U937 cells 4 h [2],Cell viability at time point in d-U937 cells 24 h [2]
50,"COc1ccc(-n2nc(C(C)(C)C)cc2NC(=O)Nc2ccc(Oc3ccnc(Nc4cc(OC)cc(C(N)=O)c4)n3)c3ccccc23)cc1 [Example 41, 3-((4-((4-(3-(3-(tert-butyl)-1-(4-methoxyphenyl)-1H-pyrazol-5-yl)ureido)naphthalen-1-yl)oxy)pyrimidin-2-yl)amino)-5-methoxybenzamide]","−ve (−ve and +ve indicate that the value is below and above respectively, the no significant effect threshold, defined as 30% inhibition at 1 μg/mL at the time point indicated.)","−ve (−ve and +ve indicate that the value is below and above respectively, the no significant effect threshold, defined as 30% inhibition at 1 μg/mL at the time point indicated.)"
4,"COc1cc(Nc2nccc(Oc3ccc(NC(=O)Nc4cc(C(C)(C)C)nn4-c4ccc(C)cc4)c4ccccc34)n2)cc(C(=O)NCCN(C)C)c1 [Example 43, 3-((4-((4-(3-(3-(tert-butyl)-1-(p-tolyl)-1H-pyrazol-5-yl)ureido)naphthalen-1-yl)oxy)pyrimidin-2-yl)amino)-N-(2-(dimethylamino)ethyl)-5-methoxybenzamide]","−ve (−ve and +ve indicate that the value is below and above respectively, the no significant effect threshold, defined as 30% inhibition at 1 μg/mL at the time point indicated.)","−ve (−ve and +ve indicate that the value is below and above respectively, the no significant effect threshold, defined as 30% inhibition at 1 μg/mL at the time point indicated.)"
12,"Cc1ccc(-n2nc(C(C)(C)C)cc2NC(=O)Nc2ccc(Oc3ccnc(Nc4cccc(C(=O)NCCN(C)C)c4)n3)c3ccccc23)cc1 [Example 18, 3-((4-((4-(3-(3-(tert-butyl)-1-(p-tolyl)-1H-pyrazol-5-yl)ureido)naphthalen-1-yl)oxy)pyrimidin-2-yl)amino)-N-(2-(dimethylamino)ethyl)benzamide]","−ve (−ve and +ve indicate that the value is below and above respectively, the no significant effect threshold, defined as 30% inhibition at 1 μg/mL at the time point indicated.)","−ve (−ve and +ve indicate that the value is below and above respectively, the no significant effect threshold, defined as 30% inhibition at 1 μg/mL at the time point indicated.)"
10,COc1ccc(-n2nc(C(C)C)cc2NC(=O)Nc2ccc(Oc3ccnc(Nc4cc(C(=O)NCCN5CCOCC5)cc(C(F)(F)F)c4)n3)c3ccccc23)cc1 [Example 47],"−ve (−ve and +ve indicate that the value is below and above respectively, the no significant effect threshold, defined as 30% inhibition at 1 μg/mL at the time point indicated.)","−ve (−ve and +ve indicate that the value is below and above respectively, the no significant effect threshold, defined as 30% inhibition at 1 μg/mL at the time point indicated.)"
17,"Cc1ccc(-n2nc(C(C)(C)C)cc2NC(=O)Nc2ccc(Oc3ccnc(Nc4cccc(C(=O)N5CCOCC5)c4)n3)c3ccccc23)cc1 [Example 27, 1-(3-(tert-butyl)-1-(p-tolyl)-1H-pyrazol-5-yl)-3-(4-((2-((3-(morpholine-4-carbonyl)phenyl)amino)pyrimidin-4-yl)oxy)naphthalen-1-yl)urea]","−ve (−ve and +ve indicate that the value is below and above respectively, the no significant effect threshold, defined as 30% inhibition at 1 μg/mL at the time point indicated.)","−ve (−ve and +ve indicate that the value is below and above respectively, the no significant effect threshold, defined as 30% inhibition at 1 μg/mL at the time point indicated.)"
< 1,"COc1cc(Nc2cc(Oc3ccc(NC(=O)Nc4cc(C(C)(C)C)nn4-c4ccc(C)cc4)c4ccccc34)ncn2)cc(C(=O)NCCN2CCOCC2)c1 [Example 72, 3-((6-((4-(3-(3-(tert-butyl)-1-(p-tolyl)-1H-pyrazol-5-yl)ureido)naphthalen-1-yl)oxy)pyrimidin-4-yl)amino)-5-methoxy-N-(2-morpholinoethyl)benzamide]","−ve (−ve and +ve indicate that the value is below and above respectively, the no significant effect threshold, defined as 30% inhibition at 1 μg/mL at the time point indicated.)","−ve (−ve and +ve indicate that the value is below and above respectively, the no significant effect threshold, defined as 30% inhibition at 1 μg/mL at the time point indicated.)"
< 1,"Cc1ccc(-n2nc(C3(C)COC3)cc2NC(=O)Nc2ccc(Oc3ccnc(Nc4cccc(C(=O)NCCN5CCOCC5)c4)n3)c3ccccc23)cc1 [Example 22, 3-((4-((4-(3-(3-(3-methyloxetan-3-yl)-1-(p-tolyl)-1H-pyrazol-5-yl)ureido)naphthalen-1-yl)oxy)pyrimidin-2-yl)amino)-N-(2-morpholinoethyl)benzamide]","−ve (−ve and +ve indicate that the value is below and above respectively, the no significant effect threshold, defined as 30% inhibition at 1 μg/mL at the time point indicated.)","−ve (−ve and +ve indicate that the value is below and above respectively, the no significant effect threshold, defined as 30% inhibition at 1 μg/mL at the time point indicated.)"
< 1,"COc1cc(Nc2nccc(Oc3ccc(NC(=O)Nc4cc(C(C)C)nn4-c4ccc(C)c(C)c4)c4ccccc34)n2)cc(C(=O)NCCN2CCOCC2)c1 [Example 56, 3-((4-((4-(3-(1-(3,4-dimethylphenyl)-3-isopropyl-1H-pyrazol-5-yl)ureido)naphthalen-1-yl)oxy)pyrimidin-2-yl)amino)-5-methoxy-N-(2-morpholinoethyl)benzamide]","−ve (−ve and +ve indicate that the value is below and above respectively, the no significant effect threshold, defined as 30% inhibition at 1 μg/mL at the time point indicated.)","−ve (−ve and +ve indicate that the value is below and above respectively, the no significant effect threshold, defined as 30% inhibition at 1 μg/mL at the time point indicated.)"
6,"COc1cc(Nc2nccc(Oc3ccc(NC(=O)Nc4cc(C(C)C)nn4-c4ccc(C)cc4)c4ccccc34)n2)cc(C(=O)N2CCOCC2)c1 [Example 12, 1-(3-Isopropyl-1-(p-tolyl)-1H-pyrazol-5-yl)-3-(4-((2-((3-methoxy-5-(morpholine-4-carbonyl)phenyl)amino)pyrimidin-4-yl)oxy)naphthalen-1-yl)urea]","−ve (−ve and +ve indicate that the value is below and above respectively, the no significant effect threshold, defined as 30% inhibition at 1 μg/mL at the time point indicated.)","−ve (−ve and +ve indicate that the value is below and above respectively, the no significant effect threshold, defined as 30% inhibition at 1 μg/mL at the time point indicated.)"
12,COc1ccc(-n2nc(C(C)C)cc2NC(=O)Nc2ccc(Oc3ccnc(Nc4ccc(C(=O)NCCN5CCOCC5)cc4OC)n3)c3ccccc23)cc1 [Example 38],"−ve (−ve and +ve indicate that the value is below and above respectively, the no significant effect threshold, defined as 30% inhibition at 1 μg/mL at the time point indicated.)","−ve (−ve and +ve indicate that the value is below and above respectively, the no significant effect threshold, defined as 30% inhibition at 1 μg/mL at the time point indicated.)"
